Measured values: patent US20160008336A1, “HDAC INHIBITORS FOR THE TREATMENT OF TRAUMATIC BRAIN INJURY” (Lixte Biotechnology, Inc., priority 2013, published 2016)
“Also recorded” adds a separate entry of the source.

Columns and labels:
[1] = test system: rodent brains following TBI (controlled cortical impact); test: FDG-PET imaging of rat brains after TBI; assay type: in vivo; details: for glucose uptake levels: rat brain cells following TBI, activity expected analogous to 205
Protocol: (§1) The rats are anesthetized as described above. The rodent's head is be shaved, the animal placed in a stereotaxic device, the skin is prepared as in the Aseptic Techniques described above and the skull exposed using a small surgical incision over the temporal scalp. A small surgical incision (9-10 mm), a burr hole in the skull (5-6 mm), and a single contusion over the right frontal cortex is performed (FIG. 7). A 5.0 mm burr hole is drilled into the skull with a hand-held trephine to expose the dura mater. […] A single contusion is then made onto the surface of the dura (tip penetration depth of 2.1 mm, velocity of 5 m/s) over the left frontal cortex. Following CCI, the burr hole is covered with a bone flap, sealed with Jet Denture Repair Professional Package, and then the incision is closed with non-absorbable suture in a simple interrupted pattern. Sham-treated controls are treated similarly, but the impactor is not activated.
(§2) TBI rodent model animals are treated with HDACis post-surgery at 4 h, 24 h and 48 h. The efficiency of HDACi treatment is evaluated as shown in FIG. 9 by studying the following parameters: • A=FDG-PET imaging analysis • B=Rota behavior test • C=Pathology analysis (H&E, IHC, IF, & gross) • D=Frozen samples (2D gel and WB) • E=Harvest animals and procure brain samples • Tx=HDI treatment
FDG-PET imaging is conducted in larger animal cohorts treated with different drug concentrations to further confirm HDACis potential therapeutic effect in treating TBI and in increasing […].
^18F-FDG is purchased from the Nuclear Pharmacy of Cardinal Health, and reconstituted with sterile saline. PET scans and image analysis are performed using an Inveon microPET scanner (Siemens Medical Solutions). Each rat is injected with 18.5 MBq (500 μCi) of ^18F-FDG via tail vein. All the rats are maintained under anesthesia and warmed condition. 10 min static scans are acquired at 1 h after injection. The images are reconstructed using a two-dimensional ordered-subset expectation maximum (OSEM) algorithm, and no correction is applied for attenuation or scatter. For each microPET scan, regions of interest (ROIs) are drawn over the brain and muscle region using vendor software ASI Pro 5.2.4.0 on decay-corrected whole-body coronal images. The radioactivity accumulation within brain, heart and brown fat are obtained from mean pixel values within the multiple ROI volumes and then converted to megabecquerels (MBq) per milliliter […] using a conversion factor. These values are then divided by the administered activity to obtain (assuming a tissue density of 1 g/ml) an image-ROI-derived percent injected dose per gram (% ID/g).

[2] = test system: post-traumatic brain injured rats; test: Behavioral motor performance (balance beam) test after TBI; assay type: in vivo, rat; details: for motor skills tests: rats post-TBI, activity expected analogous to 205
Protocol: as §1, §2
Balance Beam Test: The balance beam is a test of motor coordination (3-4). It is also a useful assay for sedation and joint pathology. Several beams are available. In general the round beams are harder than the square beams, and the thinner the beam the harder the test. In this test, animals have to walk and cross a round balance beam (like across one meter bridge-bar) to test their balance and motor skills. The score is recorded compared to sham group: • 100%: walk balance and cross whole balance beam. • 10%-90%: walk balance and cross balance beam from 10 cm to 90 cm. • 0%: walk unbalance and slip down

Caspase 3 = test: Western blot of TBI brain tissue, Caspase 3; assay type: in vivo, rat; details: for Pro-Caspase 3 expression: rat brain cells following TBI
Protocol: as §2
(§3) Sections of frozen tissue protein from normal brain and TBI tissues in the injury area are extracted in T-PER solution, sonicated and centrifuged at 15,000 g at 4° C. to remove insoluble debris. The supernatant is used as the lysate. The protein concentration in each sample is measured by a colorimetric assay (Bio-Rad Protein Assay Kit) (Bio-Rad; Hercules, Calif.). Samples are denatured at 95° C. for 5 minutes in protein loading buffer. Equal amounts of protein at thirty micrograms of each lysate is loaded onto 4%-20% SDS-polyacrylamide gel (Invitrogen), and the proteins are electrophoretically transferred to nitrocellulose membranes and blocked with 5% milk solution. Detection of protein-bound primary antibodies is performed with a horseradish peroxidase-conjugated secondary antibody specific to rabbit or mouse immunoglobulin for one hour and an enhanced chemiluminescence system. Expression of specific proteins in each sample are determined and TBI injury tissue protein expression are compared to normal brain.

phosphorylated-AKT = test: Western blot of TBI brain tissue, p-AKT; assay type: in vivo; details: rat brain cells following TBI; for p-Akt expression: activity expected analogous to 205
Protocol: as §2, §3

Nestin = test: Immunofluorescence / immunohistochemistry after TBI, Nestin; assay type: in vivo, rat
Protocol: as §2
(§4) Immunohistochemistry staining is performed using commercially available GFAP and Nestin primary antibodies (Abcam) on formalin-fixed paraffin-embedded tissue mounted on positively charged slides. The expression of Nestin is thought to identify neural stem and progenitor cells within the central nervous system. GFAP expression, however, is thought to represent astrocyte activation. Samples are labeled and visualized using a DAB staining kit (EnvisionKit; Dako, Carpinteria, Calif., USA). Immunofluorescence staining is also performed (with primary antibodies for GFAP and Nestin) in order to best assess the spatial and temporal pattern of expression of molecular markers associated with astrocyte activation and gliosis observed during the brain tissue injury repair process. The specimens are visualized using a Zeiss LSM 510 confocal microscope (Carl Zeiss, Thornwood, N.Y., USA).

[3] = test system: TBI damage area of rodent brain; test: Pathological analysis (H & E staining) and gross appearance after TBI; assay type: in vivo, rat
Protocol: as §1, with “Sham-treated controls are treated similarly, but the impactor is not activated.” left out
as §2
Brain injury areas are measured and calculated post-TBI at 4 hours, day 1, and week (according to FIG. 9). […]

GFAP = test: Immunofluorescence / immunohistochemistry after TBI, GFAP; assay type: in vivo, rat; details: vs sham and TBI untreated brains, FIG. 6
Protocol: as §2, §4

[4] = relative to SAHA; cited from earlier work
transformed cells = details: in vitro and in vivo; background; cited from earlier work
[5] = activity expected analogous to 205

Row | SMILES | glucose uptake levels [1] | motor skills tests [2] | Pro-Caspase 3 expression (Caspase 3; [5]) | p-Akt expression (phosphorylated-AKT) | formation of new stem-like proliferative neural cells following TBI (Nestin; [5]) | also measured
1 | O=C(CCCCCNC(=O)c1ccccc1S)Nc1ccccc1 [Compound 201, 2-Mercapto-N-[5-(phenyl-3-ylcarbamoyl)pentyl]benzamide] | increase | perform significantly better | decrease | increase | induce formation | 
2 | O=C(NCCCCCCNC(=O)c1ccccc1O)c1ccccc1O [Compound 203] | increase | perform significantly better | decrease | increase | induce formation | 
3 | O=C(NCCCCCCNC(=O)c1ccccc1S)c1ccccc1S [Compound 204] | increase | perform significantly better | decrease | increase | induce formation | 
4 | O=C(CCCCCNC(=O)c1ccccc1S)Nc1cccnc1 [Compound 205, 2-Mercapto-N-[5-(pyridin-3-ylcarbamoyl)pentyl]benzamide] |  |  |  |  |  | glucose uptake levels at the site of injury (FDG-PET) ([1]; rats post-TBI, treated post-surgery at 4 h, 24 h and 48 h, FIG. 1): significantly increased; also recorded: increased glucose levels; angiogenic activity in the brain ([1]; rodent model of TBI, post-injury administration): up-regulated angiogenic activity; H & E staining: reactive gliosis and cellularity ([3]; FIG. 3): increased reactive gliosis (arrow) and more active brain cells observed; also recorded: increased reactive gliosis (as well as increased cellularity); gross appearance of TBI damage area / scarring ([3]; gross post-mortem examination, FIG. 2): improved; also recorded: much less scaring and less appearance of obvious injury; also recorded: reduced scarring; behavioral motor performance (motor skill tests) ([2]; post-injury administration, 10 mg/kg, one meter bar, FIG. 4): improves behavioral performance; also recorded: performed significantly better; Cleaved Caspase 3 expression (Caspase 3; Western blot, FIG. 5a): significantly decreased; Pro-Caspase 3 expression (Caspase 3; FIG. 5a): decreased; p-AKT expression (phosphorylated-AKT; FIG. 5b): increased; formation of new stem-like proliferative neural cells following TBI (Nestin; following TBI): induced formation; Nestin staining / expression (Nestin; vs sham and TBI untreated brains, FIG. 6): increased; GFAP staining / expression (GFAP): increased; half-life in vivo [4]: longer half-life in vivo
5 | CN(C)c1ccc(NC(=O)CCCCCNC(=O)c2ccccc2S)cc1 [Compound 206] | increase | perform significantly better | decrease | increase | induce formation | 
6 | O=C(CCCCCNC(=O)c1cc(Cl)ccc1S)Nc1cccnc1 [Compound 207a] | increase | perform significantly better | decrease | increase | induce formation | 
7 | O=C(NCCCCCNC(=O)c1ccccc1S)c1cccnc1 [Compound 208] | increase | perform significantly better | decrease | increase | induce formation | 
8 | Nc1ccc(NC(=O)CCCCCNC(=O)c2ccccc2S)cc1 [Compound 209] | increase | perform significantly better | decrease | increase | induce formation | 
9 | O=C(CCCCCNC(=O)c1cc(Cl)ccc1S)Nc1ccccc1 [Compound 210] | increase | perform significantly better | decrease | increase | induce formation | 
10 | COc1ccc(S)c(C(=O)NCCCCCC(=O)Nc2ccccc2)c1 [Compound 211] | increase | perform significantly better | decrease | increase | induce formation | 
11 | O=C(CCCCCCNC(=O)c1ccccc1S)Nc1ccccc1 [Compound 212] | increase | perform significantly better | decrease | increase | induce formation | 
12 | O=C(CCCCCCCNC(=O)c1ccccc1S)Nc1ccccc1 [Compound 213] | increase | perform significantly better | decrease | increase | induce formation | 
13 | O=C(CCCCCCCCCCNC(=O)c1ccccc1S)Nc1ccccc1 [Compound 214] | increase | perform significantly better | decrease | increase | induce formation | 
14 | O=C(CCCCCCC(=O)Nc1ccccc1)NO [SAHA, Suberoylanilide hydroxamic acid] |  |  |  |  |  | growth arrest and death of transformed cells (transformed cells): causes growth arrest and death
